Earlier results as cited in patent publication US20240226128A1, “NOVEL COMPOUNDS WITH DUAL INHIBITION ACTIVITY AGAINST SARS-COV-2 CRITICAL ENZYMES RDRP, MPRO AND HUMAN TMPRSS2” (priority 2022, published 2024).

System: COVID-19
Details: high-risk patient including different variants; cited from earlier work

CC(C)C(=O)OC[C@H]1O[C@@H](n2ccc(NO)nc2=O)[C@H](O)[C@@H]1O [Molnupiravir]
reduced risk of COVID-19 death: 50%
